Measured values taken from US8481514B2, “Therapeutical uses of inecalcitol” (Hybrigenics SA, priority 2009, dated 2013).

Tests used:
[1] = Dose finding and clinical tolerance study of inecalcitol with docetaxel-prednisone in HRPC patients (safety); format: in vivo, human; conditions: for adverse events related to the drug: attribution of the AEs seen under the combination
Procedure: Escalating oral dosages of inecalcitol were combined to chemotherapy in naive HRPC patients. Safety was evaluated in groups of 3-6 patients receiving inecalcitol every other day (qod) or daily (qd) on a 21-day cycle in combination with intravenous docetaxel (75 mg/m2 q3w) and oral prednisone (5 mg bid). Patients (pts) received up to six cycles unless unacceptable toxicity or disease progression. Primary endpoint was dose limiting toxicity (DLT) defined as grade 3 hypercalcemia within the first cycle. Calcemia, creatininemia and complete blood counts were assessed weekly; biochemistry, electrocardiogram and prostate specific antigen (PSA) every 3 weeks. Efficacy endpoint was PSA response defined as ≧30% decline within 3 months.
(§1) Inecalcitol was given to patients in soft gelatine capsules of different sizes, shapes and strengths depending on the dose level studied: one, two or four 40 μg capsules (size 11, oblong shape) for administration of 40, 80 or 160 μg/day, respectively; three or six 100 μg capsules (size 4, round shape) for administration of 300 or 600 μg/day, respectively; five 200 μg capsules (size 7.5, oval shape) for administration of 1,000 μg/day; five 400 μg capsules (size 14, oblong shape) for administration of 2 mg/day, and four 1 mg capsules (size 14, oblong shape) for administration of 4 mg/day. In all the capsules, inecalcitol was present in the fill content as a solution in medium chain triglycerides from fractionated coconut oil at different concentrations depending on the capsule strengths.

[2] = 9-month toxicology study of once-a-day oral inecalcitol in monkeys (calcemia, toxicity); format: in vivo
Procedure: (§2) On FIG. 1, mean plasma concentrations of inecalcitol are plotted vs. time on the first day of the study and close to its end, at day 272. The mean toxicokinetic profiles are almost superimposable, with a mean peak of about 1.2 ng/ml achieved as soon as 15 minutes after oral intake, and a steady disappearance from circulation within 4 hours.

[3] = 9-month toxicokinetic study of once-a-day oral inecalcitol in monkeys (plasma concentrations); format: in vivo; conditions: male mature monkeys, day 1 and day 272
Procedure: FIG. 1 illustrates the mean plasma concentrations vs time obtained during a 9-month toxicology study on once-a-day oral inecalcitol performed in male mature monkeys.
as §2

[4] = 2-week toxicology study of twice-a-day oral inecalcitol in monkeys (calcemia, toxicity); format: in vivo, cynomolgus monkeys; conditions: for plasma calcium level (mean±s.e.m.): same 4 animals
Procedure: (§3) On FIG. 2, mean plasma concentrations of inecalcitol are plotted vs. time on the first day of treatment with two successive administrations of inecalcitol around 8 AM and 7 PM, i.e. about 11 hours apart. […] In both instances, inecalcitol levels returned to basal levels within 4 hours. In the table below, plasma calcium levels (in mmoles/L, mean±s.e.m.) were monitored in the same 4 animals for two weeks before and for two weeks during the treatment period.

[5] = 2-week toxicokinetic study of twice-a-day oral inecalcitol in monkeys (plasma concentrations); format: in vivo, cynomolgus monkeys; conditions: first day of treatment
Procedure: FIG. 2 illustrates the mean plasma concentrations vs time obtained during a 2-week toxicology study on twice-a-day oral inecalcitol performed in male juvenile monkeys.
as §3

[6] = Pharmacokinetics of oral inecalcitol in HRPC patients (LC/MS/MS of plasma); format: in vivo; conditions: human patients
Procedure: as §1
Inecalcitol was assayed as unchanged circulating compound in the plasma by liquid chromatography followed by tandem mass spectrometry (LC/MS/MS). […] At 600 μg and 1000 μg, mean peak values reached around 35 and 45 pg/ml (0.035 and 0.045 ng/ml) at 90 and 45 minutes, respectively.

[7] = Eelen et al. 2005; Verlinden et al. 2001; cited from earlier work
[8] = Eelen et al. 2005; Verlinden et al. 2001; cited from earlier work; remark: listed apart in the source
[9] = tested on: human breast cancer cells; conditions: in vitro and in vivo; Verlinden et al. 2000; cited from earlier work
[10] = male mature cynomolgus monkeys, daily oral, 9 months, up to highest tested dose 1.8 mg per day per monkey
[11] = male juvenile cynomolgus monkeys, twice daily oral, 2×1.6 mg each day, 2 weeks
[12] = 50 pts treated, inecalcitol with docetaxel and prednisone
[13] = HRPC patients, oral 300 μg, 600 μg, 1000 μg (qod,qd), 2 mg (qd) or 4 mg (qd)

CC(=O)O[C@@]12CO[C@@H]1C[C@H](O)[C@@]1(C)C(=O)[C@H](O)C3=C(C)[C@@H](OC(=O)[C@H](O)[C@@H](NC(=O)OC(C)(C)C)c4ccccc4)C[C@@](O)([C@@H](OC(=O)c4ccccc4)[C@H]21)C3(C)C [docetaxel, reference compound]
adverse events related to the drug [1]: All these AEs

C[C@H](CC#CC(C)(C)O)[C@H]1CC[C@@H]2/C(=C/C=C3C[C@@H](O)C[C@H](O)C3)CCC[C@@]21C [inecalcitol, 19-nor-9,10-seco-14βH-cholesta-5(Z),7(E)-dien-23-ino-1α,3β,25-triol-23-yne]
maximal tolerated dose ([2]; 9-month daily oral, highest tested dose 1.8 mg per day per monkey): has not been reached
difference in plasma calcium levels between control and treated monkeys ([2]; different time points during the 9-month study): did not show any difference
hypercalcemia [2, 10]: no hypercalcemia
toxic effects [2, 10]: no toxic effects
plasma calcium level (mean±s.e.m.) ([2]; treated monkeys n = 6, Day 85): 2.53 ± 0.03 mmol/L
plasma calcium level (mean±s.e.m.) ([2]; treated monkeys n = 6, Day 175): 2.49 ± 0.05 mmol/L
plasma calcium level (mean±s.e.m.) ([2]; treated monkeys n = 6, Day 268): 2.51 ± 0.05 mmol/L
plasma calcium level (mean±s.e.m.) ([2]; treated monkeys n = 6, Day −12 (before treatment)): 2.54 ± 0.11 mmol/L
mean peak plasma concentration ([3]; 1.8 mg per day): about 1.2 ng/ml
disappearance from circulation [3]: ≤ 4 h
time of mean peak after oral intake [3]: 15 min
hypercalcemia [4, 11]: no hypercalcemia
toxic effects [4, 11]: no toxic effects
plasma calcium level (mean±s.e.m.) ([4]; Day 7 of treatment, 2×1.6 mg each day): 2.68 ± 0.15 mmol/L
plasma calcium level (mean±s.e.m.) ([4]; Day 13 of treatment, 2×1.6 mg each day): 2.76 ± 0.12 mmol/L
plasma calcium level (mean±s.e.m.) ([4]; Day −6 (before treatment)): 2.61 ± 0.06 mmol/L
plasma calcium level (mean±s.e.m.) ([4]; Day −13 (before treatment)): 2.66 ± 0.088 mmol/L
changes in plasma calcium ([4]; two weeks before vs two weeks during treatment): No significant changes
return of inecalcitol levels to basal levels ([5]; after each of the two administrations): ≤ 4 h
peak mean plasma concentration, second administration ([5]; male juvenile monkeys, 1.6 mg oral around 7 PM): 2.50 ng/mL
peak mean plasma concentration, first administration ([5]; male juvenile monkeys, 1.6 mg oral around 8 AM): 2.75 ng/mL
G1-2 adverse event: asthenia [1, 12]: 22 pts
G1-2 adverse event: constipation [1, 12]: 15 pts
G1-2 adverse event: diarrhea [1, 12]: 13 pts
G3-4 AE: arrhythmia [1, 12]: 2 pts
G3-4 AE: asthenia [1, 12]: 3 pts
G3-4 AE: diarrhea [1, 12]: 1 pt
G3-4 AE: general health deterioration [1, 12]: 3 pts
G3-4 AE: lymphopenia [1, 12]: 12 pts
G3-4 AE: neutropenia [1, 12]: 36 pts
increased calcemia ([1]; HRPC patients, oral 40 μg to 4 mg qod or qd, with docetaxel and prednisone, 50 pts treated): No increased calcemia
hypercalcemia [1, 13]: did not induce any hypercalcemia
toxic effect [1, 13]: did not induce any hypercalcemia or any toxic effect
adverse events related to the drug [1]: none
peak plasma values ([6]; oral 300 μg, lower limit of quantitation 10 pg/ml): barely detectable above the lower limit of quantitation
time of mean peak value ([6]; oral 600 μg): 90 min
time of mean peak value ([6]; oral 1000 μg): 45 min
time of mean peak value ([6]; oral 2 mg): 90 min
time of mean peak value ([6]; oral 4 mg): 45 min
half-life ([6]; male, plasma, four mean profiles between 600 μg and 4 mg oral, read-out: approximate half-life): 1 to 1.5 h
antiproliferative effects compared with calcitriol [7]: enhanced
calcemic effects compared with calcitriol [8]: markedly lower
activity on growth of human breast cancer cells [9]: inhibiting the growth
